# System: T1, RferOr6/RferOrco
# T1 construct: full-length ORF of RferOr6 (382 residues, 7 predicted TMDs) cloned from antennal cDNA in pT7TS; cRNA co-injected 1:1 with RferOrco in Xenopus oocytes; with Odorant receptor coreceptor
# Experiment: two-electrode voltage clamp, Xenopus oocytes, dose-response
# Assay type: cell-based, Rhynchophorus ferrugineus
# Details: agonist; co-expressed with RferOrco 1:1; holding potential -80 mV; Ringer's buffer pH 7.6; 20 s exposure
smiles,measurement,value
CC1=CCC2CC1C2(C)C (stereo not drawn) [α-pinene],EC50,94.5 µM

# Reference: paper PMC8381602, “Non-palm Plant Volatile α-Pinene Is Detected by Antenna-Biased Expressed Odorant Receptor 6 in the Rhynchophorus ferrugineus (Olivier) (Coleoptera: Curculionidae)” (Frontiers in Physiology, 2021)
